21 compounds from patent USRE47689E1, “Compounds for treating spinal muscular atrophy” (PTC Therapeutics, Inc., priority 2011, dated 2019) can be followed below.

SMILES strings stand for the structures. Like-named read-outs stand apart in the source and are kept apart here. Where only a bound is given, the exact number is not on record here.

For one series, the system named is Smn protein. The series is described as follows: Smn protein assay in cultured cells (SMN HTRF). It is filed as cell-based, human. The conditions noted are these: 48 hours; for EC1.5x (concentration giving 1.5-fold Smn protein increase): SMA Type 1 patient fibroblast cells (GM03813), 7-point concentration curve, SMN HTRF, concentration producing 1.5 times Smn protein vs DMSO vehicle control, read-out: EC1.5x for Smn protein expression; for maximum fold (Fold) increase of Smn protein: SMA patient fibroblast cells, 7-point concentration data, fold increase relative to vehicle control (SMN HTRF). The method, boiled down: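 Smn in SMA fibroblast lysates, measured by anti-SMN HTRF after 48 h compound exposure; EC1.5x from fold change over vehicle.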
On the technique in general: TR-FRET usually uses a lanthanide donor and a delayed reading to cut background.

The subject of series [1] is SMN2 minigene (full length SMN2 minigene mRNA containing SMN2 exon 7). The series is described as follows: SMN2 minigene mRNA splicing RT-qPCR assay in cultured cells. It is filed as cell-based, human. The note with it: Homo sapiens, HEK293-H, read-out: EC1.5x for production of full length SMN2 mRNA. The method, boiled down:
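Lysates → one-step RT-qPCR, minigene-specific primers (0.4 μM final) + GAPDH multiplex, 40 cycles. FL/GAPDH vs DMSO; EC1.5x, star-binned.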
(In general: Real-time PCR tracks product formation cycle by cycle.)

[2] abbreviates: HEK293H cells stably transfected with SMN2-A minigene, 24 hours, 7-point concentration curve, 1.5-fold relative to vehicle-treated cells.

Usually melting point stands for the temperature of the solid-liquid transition. Regarding `Cc1nc(Cl)cn2cc(-c3cc4ccc(N5CCN6CCC[C@H]6C5)cc4oc3=O)nc12` [Compound 711, 3-(6-chloro-8-methylimidazo[1,2-a]pyrazin-2-yl)-7-[(8aS)-hexahydropyrrolo[1,2-a]pyrazin-2(1H)-yl]-2H-chromen-2-one], the melting point was 260 to 262 °C. Moreover, in the series with Smn protein, the EC1.5x (concentration giving 1.5-fold Smn protein increase) was in the range of 1000 to 3000 nM; the “maximum fold (Fold) increase of Smn protein” value (“maximum fold (Fold) increase” below) is “*** (fold increase between >1.35 and ≤1.5)”. Besides, in series [1] (setting [2]), the EC (1.5-fold) is less than 0.1 µM.
The compound `COc1ccc(-c2cc3ccc(N4CCNCC4)cc3oc2=O)cc1C` [Compound 541, 3-(4-methoxy-3-methylphenyl)-7-(piperazin-1-yl)-2H-chromen-2-one] registered a melting point of 171 to 173 °C. Further, the “maximum fold (Fold) increase” value with Smn protein was “* (maximum fold increase of ≤1.2)”. In addition, the EC (1.5-fold) in series [1] (setting [2]) fell in the range of 1 to 3 µM.
Consider `CN1CCN(c2ccc3cc(-c4ccsc4)c(=O)oc3c2)CC1` [Compound 320, 7-(4-methylpiperazin-1-yl)-3-(thiophen-3-yl)-2H-chromen-2-one], for which the melting point fell in the range of 151 to 153 °C. Further, the “maximum fold (Fold) increase” value in the series on Smn protein is reported as “* (maximum fold increase of ≤1.2)”. Besides, the EC (1.5-fold) in series [1] (24 h) was in the range of 1 to 3 µM.
Compound `Cl.O=c1oc2cc(N3CCNCC3)ccc2cc1-c1nc2cc(F)ccc2o1` [Compound 19, 3-(5-fluoro-1,3-benzoxazol-2-yl)-7-(piperazin-1-yl)-2H-chromen-2-one hydrochloride] returned a melting point of 320 to 325 °C. Besides, in the series with Smn protein, the “maximum fold (Fold) increase” value is recorded as “* (maximum fold increase of ≤1.2)”. Besides, in series [1] (setting [2]), the EC (1.5-fold) fell in the range of 1 to 3 µM.
As to `O=c1oc2cc(N3CC4CCC(C3)N4)ccc2cc1-c1cn2cccc(Cl)c2n1` [Compound 526, 3-(8-chloroimidazo[1,2-a]pyridin-2-yl)-7-(3,8-diazabicyclo[3.2.1]oct-3-yl)-2H-chromen-2-one], the melting point is 213 to 216 °C. For the same compound, in the series with Smn protein, the “maximum fold (Fold) increase” value was “*** (fold increase between >1.35 and ≤1.5)”. For the same compound, the EC (1.5-fold) in series [1] (24 h) lay within 0.1 to 0.3 µM.
Compound `C[C@H]1CN(c2ccc3cc(-c4ccc5c(c4)OCCO5)c(=O)oc3c2)CCN1` [Compound 513, 3-(2,3-dihydro-1,4-benzodioxin-6-yl)-7-[(3S)-3-methylpiperazin-1-yl]-2H-chromen-2-one] gave a melting point of 196 to 198 °C. The “maximum fold (Fold) increase” value with Smn protein was “* (maximum fold increase of ≤1.2)”. In series [1] (setting [2]), the EC (1.5-fold) fell in the range of 1 to 3 µM.
The compound `Cc1cc2cc(-c3cc4ccc(N5CCN[C@H](C)C5)cc4oc3=O)oc2c(C)n1` [Compound 806, 3-(5,7-dimethylfuro[2,3-c]pyridin-2-yl)-7-[(3R)-3-methylpiperazin-1-yl]-2H-chromen-2-one] came in with a melting point of 251 to 256 °C. Further, in the series on Smn protein, the EC1.5x (concentration giving 1.5-fold Smn protein increase) is less than 300 nM and the “maximum fold (Fold) increase” value was “***** (fold increase >1.65)”. Also, the EC (1.5-fold) in series [1] (setting [2]) was less than 0.1 µM.
In turn, `Cc1ccc2nc(-c3cc4ccc(N(C)C5CCN(C)CC5)cc4oc3=O)cn2c1` [Compound 282, 3-(6-methylimidazo[1,2-a]pyridin-2-yl)-7-[methyl(1-methylpiperidin-4-yl)amino]-2H-chromen-2-one] showed a melting point of 181 to 184 °C. For the same compound, in the series with Smn protein, the “maximum fold (Fold) increase” value is listed as “* (maximum fold increase of ≤1.2)”. In addition, the EC (1.5-fold) in series [1] (24 h) was in the range of 1 to 3 µM.
Regarding `Cc1ccc2nc(-c3cc4ccc(N5CCCNCC5)cc4oc3=O)cn2c1` [Compound 176, 7-(1,4-diazepan-1-yl)-3-(6-methylimidazo[1,2-a]pyridin-2-yl)-2H-chromen-2-one], the melting point was in the range of 218 to 220 °C. The “maximum fold (Fold) increase” value in the series with Smn protein is “* (maximum fold increase of ≤1.2)”. Moreover, the EC (1.5-fold) in series [1] (setting [2]) is 1 to 3 µM.
As for `Cc1cn2cc(-c3cc4ccc(OC5CCN(C)CC5)cc4oc3=O)nc2c(C)n1` [Compound 867, 3-(6,8-dimethylimidazo[1,2-a]pyrazin-2-yl)-7-[(1-methylpiperidin-4-yl)oxy]-2H-chromen-2-one], the melting point lay in the range of 165 to 168 °C. In addition, in the series with Smn protein, the EC1.5x (concentration giving 1.5-fold Smn protein increase) is less than 300 nM; the “maximum fold (Fold) increase” value is “**** (fold increase between >1.5 and ≤1.65)”. Also, the EC (1.5-fold) in series [1] (setting [2]) was less than 0.1 µM.
In turn, `O=c1oc2cc(N3CCNCC3)cc(F)c2cc1-c1nc2ccccc2o1` [Compound 159, 3-(1,3-benzoxazol-2-yl)-5-fluoro-7-(piperazin-1-yl)-2H-chromen-2-one] had a melting point of 245 to 250 °C. In the series on Smn protein, the “maximum fold (Fold) increase” value was “*** (fold increase between >1.35 and ≤1.5)”. Further, the EC (1.5-fold) in series [1] (setting [2]) lay in the range of 0.3 to 1 µM.
`C[C@@H]1CN(c2ccc3cc(-c4cn5cnccc5n4)c(=O)oc3c2)C[C@H](C)N1` [Compound 459, 7-[(3R,5S)-3,5-dimethylpiperazin-1-yl]-3-(imidazo[1,2-c]pyrimidin-2-yl)-2H-chromen-2-one] came in with a melting point of 250 to 252 °C. Further, in the series with Smn protein, the EC1.5x (concentration giving 1.5-fold Smn protein increase) was 3000 to 10000 nM; the “maximum fold (Fold) increase” value is “*** (fold increase between >1.35 and ≤1.5)”. In addition, in series [1] (setting [2]), the EC (1.5-fold) is less than 0.1 µM.
Take `Cl.O=c1oc2cc(N3CCNCC3)ccc2cc1-c1nc2cccc(Cl)c2s1` [Compound 6, 3-(7-chloro-1,3-benzothiazol-2-yl)-7-(piperazin-1-yl)-2H-chromen-2-one hydrochloride]: the melting point is 320 °C (dec.). The “maximum fold (Fold) increase” value in the series on Smn protein is “* (maximum fold increase of ≤1.2)”. Besides, the EC (1.5-fold) in series [1] (setting [2]) fell in the range of 1 to 3 µM.
Consider `Cc1cn2cc(-c3cc4c(F)cc(N5CCCN(C)CC5)cc4oc3=O)nc2c(C)n1` [Compound 614, 3-(6,8-dimethylimidazo[1,2-a]pyrazin-2-yl)-5-fluoro-7-(4-methyl-1,4-diazepan-1-yl)-2H-chromen-2-one], for which the melting point lay in the range of 223 to 225 °C. In the series on Smn protein, the EC1.5x (concentration giving 1.5-fold Smn protein increase) is less than 300 nM and the “maximum fold (Fold) increase” value is on record as “***** (fold increase >1.65)”. Further, in series [1] (setting [2]), the EC (1.5-fold) is less than 0.1 µM.
`CN1CCCN(c2ccc3cc(-c4cn5cccc(Cl)c5n4)c(=O)oc3c2)CC1` [Compound 280, 3-(8-chloroimidazo[1,2-a]pyridin-2-yl)-7-(4-methyl-1,4-diazepan-1-yl)-2H-chromen-2-one]: the melting point is 161 to 163 °C. The “maximum fold (Fold) increase” value with Smn protein was “*** (fold increase between >1.35 and ≤1.5)”. The EC (1.5-fold) in series [1] (setting [2]) lay within 0.1 to 0.3 µM.
`Cn1cc2cc(-c3cc4ccc(C5CCN(CCO)CC5)cc4oc3=O)ccc2n1` [Compound 861, 7-[1-(2-hydroxyethyl)piperidin-4-yl]-3-(2-methyl-2H-indazol-5-yl)-2H-chromen-2-one] came in with a melting point of 220 to 226 °C. Besides, in the series on Smn protein, the EC1.5x (concentration giving 1.5-fold Smn protein increase) was 300 to 1000 nM and the “maximum fold (Fold) increase” value was “***** (fold increase >1.65)”. Moreover, in series [1] (setting [2]), the EC (1.5-fold) was less than 0.1 µM.
On to `Cc1cc(F)c2nc(-c3cc4ccc(N5CCN6CCC[C@@H]6C5)cc4oc3=O)cn2c1` [Compound 611, 3-(8-fluoro-6-methylimidazo[1,2-a]pyridin-2-yl)-7-[(8aR)-hexahydropyrrolo[1,2-a]pyrazin-2(1H)-yl]-2H-chromen-2-one], for which the melting point fell in the range of 296 to 306 °C. In addition, in the series on Smn protein, the EC1.5x (concentration giving 1.5-fold Smn protein increase) was 1000 to 3000 nM; the “maximum fold (Fold) increase” value was “**** (fold increase between >1.5 and ≤1.65)”. In addition, the EC (1.5-fold) in series [1] (setting [2]) was 0.3 to 1 µM.
Compound `C[C@@H]1CN(c2ccc3cc(-c4cn5ccc(C(F)(F)F)cc5n4)c(=O)oc3c2)C[C@H](C)N1` [Compound 116, 7-[(3R,5S)-3,5-dimethylpiperazin-1-yl]-3-[7-(trifluoromethyl)imidazo[1,2-a]pyridin-2-yl]-2H-chromen-2-one] displayed a melting point of 257 to 264 °C. Moreover, the “maximum fold (Fold) increase” value in the series with Smn protein is “** (fold increase between >1.2 and ≤1.35)”. In addition, the EC (1.5-fold) in series [1] (setting [2]) is 0.3 to 1 µM.
`C[C@@H]1CN(c2ccc3cc(-c4cn5cccc(F)c5n4)c(=O)oc3c2)CCN1` [Compound 530, 3-(8-fluoroimidazo[1,2-a]pyridin-2-yl)-7-[(3R)-3-methylpiperazin-1-yl]-2H-chromen-2-one]: the melting point lay within 226 to 228 °C. Moreover, in the series with Smn protein, the EC1.5x (concentration giving 1.5-fold Smn protein increase) was less than 300 nM; the “maximum fold (Fold) increase” value is “**** (fold increase between >1.5 and ≤1.65)”. The EC (1.5-fold) in series [1] (setting [2]) lay in the range of 0.3 to 1 µM.
Consider `CN1CCCN(c2ccc3cc(-c4cc5ccccn5n4)c(=O)oc3c2)CC1` [Compound 193, 7-(4-methyl-1,4-diazepan-1-yl)-3-(pyrazolo[1,5-a]pyridin-2-yl)-2H-chromen-2-one], for which the melting point was 159 to 163 °C. In the series on Smn protein, the EC1.5x (concentration giving 1.5-fold Smn protein increase) lay in the range of 3000 to 10000 nM; the “maximum fold (Fold) increase” value is “** (fold increase between >1.2 and ≤1.35)”. For the same compound, the EC (1.5-fold) in series [1] (setting [2]) fell in the range of 0.1 to 0.3 µM.
`CCCN1CCN(c2ccc3cc(-c4cn5cc(C)ccc5n4)c(=O)oc3c2)CC1` [Compound 207, 3-(6-methylimidazo[1,2-a]pyridin-2-yl)-7-(4-propylpiperazin-1-yl)-2H-chromen-2-one] had a melting point of 220 to 222 °C. Also, the “maximum fold (Fold) increase” value in the series with Smn protein was “** (fold increase between >1.2 and ≤1.35)”. The EC (1.5-fold) in series [1] (setting [2]) was in the range of 1 to 3 µM.
